Data published in patent publication US20260242398A1, “BENZOPYRIMIDIN-4(3H)-ONES AS PI3K INHIBITORS” (OnKure, Inc., priority 2022, published 2026).
Like-named read-outs stand apart in the source and are kept apart here.

Legend:
Assay type in all cases: cell-based
[1] = system: T47D cells expressing mutant PI3Ka (H1047R); test: In vitro cell proliferation (CellTiter-Glo, 72 hours), T47D cells; details: inhibition of proliferation, read-out: Avg T-47D EC50
Procedure: (§1) In Vitro Cell Proliferation: Determination of EC50 Values for Inhibition of Proliferation in T47D Cells Expressing Mutant PI3Ka (H1047R) Mutation and SKBR3 Cells Express WT PI3Ka.
(§2) T47D or SKBR3 cells were trypsinized, resuspended in culture media and seeded onto assay ready plates. T47D culture media consisted of RPMI, 10% FBS and Insulin (0.2 units/mL). SKBR3 culture media consisted of McCoys 5a and 10% FBS. Cells were seeded at a density of 1,500 cells/well and dispensed in 50 uL onto 384 well assay ready plates (Corning, 89089-790). Assay ready plates had previously been stamped with 10-point dilutions of compounds of interest, as well as controls. The Echo655 is used to stamp plates at 40 nL of compound or DMSO. Cells were grown for 72 hours at 37° Celsius and 5% CO2. After 72 hours, cells were equilibrated at room temperature for 15 minutes. 30 uL of CellTiter-Glo reagent is added to the plate, which is then shaken for 30 minutes at temperature at 300-500 rpm. Cells are then read on an Envision plate reader. The percentage of inhibition of proliferation was calculated using the following formula: % Inhibition=100×(LumD−LumSample)/(LumD−LumInh), where D is obtained from cells treated with 0.1% DMSO only; Inh is obtained from cells treated with 10 uM Alpelisib. The effective concentration achieving 50% inhibition of proliferation (EC50) is calculated by fitting the Curve using XWfit (v5.3.1.3), equation 201: Y=Bottom+(Top−Bottom)/(1+10^((Log EC50−X)*HillSlope)).

[2] = system: SKBR3 cells express WT PI3Ka; test: In vitro cell proliferation (CellTiter-Glo, 72 hours), SKBR3 cells; details: inhibition of proliferation
Procedure: as §1, §2

[3] = system: phosphorylation of AKT (pAKT) in T47D cells expressing mutant PI3Ka (H1047R); test: In vitro cell pAKT (Ser473) HTRF, T47D cells; details: inhibition of pAKT, read-out: Avg T-47D IC50
Procedure: (§3) In Vitro Cell pAKT: Determination of IC50 Values for Inhibition of Phosphorylation of AKT (pAKT) in T47D Cells Expressing Mutant PI3Ka (H1047R) Mutation and SKBR3 Cells Express WT PI3Ka.
(§4) T47D or SKBR3 cells were trypsinized, resuspended in culture media and seeded onto assay ready plates. T47D culture media consisted of RPMI, 10% FBS and Insulin (0.2 units/mL). SKBR3 culture media consisted of McCoy's 5a and 10% FBS. Cells were seeded at a density of 5000 cells/well and dispensed in 12.5 uL onto 384 well assay ready plates (Perkin Elmer, 6008238)). Assay ready plates had previously been stamped with 10-point dilutions of compounds of interest, as well as controls. The Echo655 is used to stamp plates at 12.5 nL of compound or DMSO. Cells were grown for 6 hour at 37° Celsius and 5% CO2. After 6 hour, 4 uL of Lysis buffer reagent was added to the plate, which was then centrifuged for 1 minute at 1000 rpm. Then the plate was incubated at room temperature for 30 minutes. After 30 minutes, 4 uL of antibody mix containing Eu Cryptate, d2 Cryptate, and detection buffer, was added to the plate. The plate was centrifuged for 1 minute at 1000 rpm and then incubated overnight at room temperature. The plate was read on an Envision plate reader using the HTRF protocol. The percentage of inhibition of AKT phosphorylation was calculated using the following formula: % Inhibition=100×(pAKTHC−pAKTSample)/(pAKTHC−pAKTLC)), where pAKTHC is obtained from cells treated with 0.1% DMSO only; pAKTLC is obtained from cells treated with 10 uM Alpelisib. The IC50 (concentration achieving 50% inhibition of pAKT) is calculated by fitting the Curve using XWfit (v5.3.1.3), equation 201: Y=Bottom+(Top−Bottom)/(1+10^((Log IC50−X)*HillSlope)).

[4] = system: phosphorylation of AKT (pAKT) in SKBR3 cells express WT PI3Ka; test: In vitro cell pAKT (Ser473) HTRF, SKBR3 cells; details: inhibition of pAKT
Procedure: as §3, §4

EC50 ([1]; Homo sapiens, T47D, 72 h) [µM]	EC50 [2] [µM]	IC50 ([3]; 6 hour) [µM]	IC50 ([4]; Homo sapiens, SK-BR-3, 6 h) [µM]	EC50 [1] [µM]	IC50 ([4]; 6 hour) [µM]	EC50 ([2]; Homo sapiens, SK-BR-3, 72 h) [µM]	IC50 ([3]; Homo sapiens, T47D, 6 h) [µM]	Structure (SMILES)
2 to 15	2 to 15	5 to 15	> 15					Cc1cc(C(C)Nc2ccccc2C(=O)O)c2nc(N3CCC(C)(C)CC3)n(CF)c(=O)c2c1 (single isomer, unassigned) [Example 51, 2-((1-(2-(4,4-dimethylpiperidin-1-yl)-3-(fluoromethyl)-6-methyl-4-oxo-3,4-dihydroquinazolin-8-yl)ethyl)amino)benzoic acid]
	> 15	> 15		2 to 15	> 15			Cc1cc(C(C)Nc2ccccc2C(=O)O)c2nc(NCc3ccc(Cl)cc3)n(C)c(=O)c2c1 (single isomer, unassigned) [Example 44, 2-((1-(2-((4-chlorobenzyl)amino)-3,6-dimethyl-4-oxo-3,4-dihydroquinazolin-8-yl)ethyl)amino)benzoic acid]
	2 to 15			2 to 15				Cc1cc(C(C)Nc2ccc(C#N)cc2C(=O)O)c2nc(N3CCC(C)(C)CC3)n(C)c(=O)c2c1 (single isomer, unassigned) [Example 16, 5-cyano-2-((1-(2-(4,4-dimethylpiperidin-1-yl)-3,6-dimethyl-4-oxo-3,4-dihydroquinazolin-8-yl)ethyl)amino)benzoic acid]
2 to 15		5 to 15	> 15			> 15		Cc1cc(C(C)Nc2ccccc2C(=O)O)c2nc(NCc3ccc(Cl)cc3)n(C)c(=O)c2c1 (single isomer, unassigned) [Example 43, 2-((1-(2-((4-chlorobenzyl)amino)-3,6-dimethyl-4-oxo-3,4-dihydroquinazolin-8-yl)ethyl)amino)benzoic acid]
2 to 15	2 to 15		> 15				> 15	Cc1cc(C(C)Nc2ccccc2C(=O)O)c2nc(Nc3ccc(Cl)cc3)n(C)c(=O)c2c1 (single isomer, unassigned) [Example 41, 2-((1-(2-((4-chlorophenyl)amino)-3,6-dimethyl-4-oxo-3,4-dihydroquinazolin-8-yl)ethyl)amino)benzoic acid]
		0.001 to 1	> 15	0.5 to 2		> 15		CC(Nc1ccccc1C(=O)O)c1cc(Cl)cc2c(=O)n(C)c(N3CCN(CC(F)(F)F)CC3)nc12 (single isomer, unassigned) [Example 26, 2-((1-(6-chloro-3-methyl-4-oxo-2-(4-(2,2,2-trifluoroethyl)piperazin-1-yl)-3,4-dihydroquinazolin-8-yl)ethyl)amino)benzoic acid]
	> 15	1 to 5	> 15	0.5 to 2				Cc1cc(C(C)Nc2ccccc2C(=O)O)c2nc(N3Cc4ccc(Cl)cc4C3)n(C)c(=O)c2c1 (single isomer, unassigned) [Example 9, 2-((1-(2-(5-chloroisoindolin-2-yl)-3,6-dimethyl-4-oxo-3,4-dihydroquinazolin-8-yl)ethyl)amino)benzoic acid]
		1 to 5	> 15	0.5 to 2		> 15		Cc1cc(C(C)Nc2ccccc2C(=O)O)c2nc(N3CCCC(C)(C)C3)n(C)c(=O)c2c1 (single isomer, unassigned) [Example 3, 2-((1-(2-(3,3-dimethylpiperidin-1-yl)-3,6-dimethyl-4-oxo-3,4-dihydroquinazolin-8-yl)ethyl)amino)benzoic acid]
2 to 15	2 to 15	1 to 5	> 15					Cc1cc(C(C)Nc2ccccc2C(=O)O)c2nc(N3CCC(C)(C)CC3)n(C3CC3)c(=O)c2c1 (single isomer, unassigned) [Example 49, 2-((1-(3-cyclopropyl-2-(4,4-dimethylpiperidin-1-yl)-6-methyl-4-oxo-3,4-dihydroquinazolin-8-yl)ethyl)amino)benzoic acid]
		0.001 to 1	> 15	0.5 to 2		> 15		Cc1cc2c(=O)n(C)c(N3CCN(CC(F)(F)F)CC3)nc2c(C(C)Nc2ccccc2C(=O)O)c1F (single isomer, unassigned) [Example 20, 2-((1-(7-fluoro-3,6-dimethyl-4-oxo-2-(4-(2,2,2-trifluoroethyl)piperazin-1-yl)-3,4-dihydroquinazolin-8-yl)ethyl)amino)benzoic acid]
	> 15	> 15	> 15	2 to 15				Cc1cc(C(C)Nc2ccccc2C(=O)O)c2nc(NC[C@H](C)c3ccccc3)n(C)c(=O)c2c1 (single isomer, unassigned) [Example 45]
	2 to 15	> 15		2 to 15	> 15			Cc1cc(C(C)Nc2ccccc2C(=O)O)c2nc(NC[C@@H](C)c3ccccc3)n(C)c(=O)c2c1 (single isomer, unassigned) [Example 48]
		> 15	> 15	> 15		> 15		Cc1cc(C(C)Nc2ccccc2C(=O)O)c2nc(SCC(C)C)n(C)c(=O)c2c1 (single isomer, unassigned) [Example 39, 2-((1-(2-(isobutylthio)-3,6-dimethyl-4-oxo-3,4-dihydroquinazolin-8-yl)ethyl)amino)benzoic acid]
	> 15	> 15		2 to 15	> 15			Cc1cc(C(C)Nc2ccccc2C(=O)O)c2nc(Nc3ccc(Cl)cc3)n(C)c(=O)c2c1 (single isomer, unassigned) [Example 42, 2-((1-(2-((4-chlorophenyl)amino)-3,6-dimethyl-4-oxo-3,4-dihydroquinazolin-8-yl)ethyl)amino)benzoic acid]
	> 15	> 15		> 15	> 15			CC(Nc1ccccc1C(=O)O)c1cc(F)cc2c(=O)n(C)c(N3CCN(CC(F)(F)F)CC3)nc12 (single isomer, unassigned) [Example 36, 2-((1-(6-fluoro-3-methyl-4-oxo-2-(4-(2,2,2-trifluoroethyl)piperazin-1-yl)-3,4-dihydroquinazolin-8-yl)ethyl)amino)benzoic acid]
2 to 15			> 15			> 15	0.001 to 1	Cc1cc(C(C)Nc2cccc(F)c2C(=O)O)c2nc(N3CCC(C)(C)CC3)n(C)c(=O)c2c1 (stereo not drawn) [Example 28, 2-((1-(2-(4,4-dimethylpiperidin-1-yl)-3,6-dimethyl-4-oxo-3,4-dihydroquinazolin-8-yl)ethyl)amino)-6-fluorobenzoic acid]
2 to 15						2 to 15		Cc1cc(C(C)Nc2ccc(C#N)cc2C(=O)O)c2nc(N3CCC(C)(C)CC3)n(C)c(=O)c2c1 (single isomer, unassigned) [Example 15, 5-cyano-2-((1-(2-(4,4-dimethylpiperidin-1-yl)-3,6-dimethyl-4-oxo-3,4-dihydroquinazolin-8-yl)ethyl)amino)benzoic acid]
0.5 to 2						> 15		Cc1cc(C(C)Nc2ccccc2C(=O)O)c2nc(N3Cc4ccc(C(N)=O)cc4C3)n(C)c(=O)c2c1 (stereo not drawn) [Example 19, 2-((1-(2-(5-carbamoylisoindolin-2-yl)-3,6-dimethyl-4-oxo-3,4-dihydroquinazolin-8-yl)ethyl)amino)benzoic acid]
